ChEMBL document CHEMBL6092165, “Discovery of sp3-rich diazatricycloundecanes as lysosomotropic autophagy inhibitors” (Eur J Med Chem, 2024)
The source made the active and inactive calls. The calls are words filed in the database; no cut-off is given here.

Tests used:
[1] = Induction of autophagic flux in human HeLa cells overexpressing EGFP-LC3 assessed as fold increase in GFP-tagged LC3-II protein expression at 10 uM incubated for 24 hrs by Western blotting analysis (reference value: 1); format: functional
HeLa [2] = assay: Antiproliferative activity against human HeLa cells assessed as inhibition of cell growth incubated for 72 hrs by MTT assay; format: functional, cell-based
HeLa [3] = assay: Induction of autophagic flux in human HeLa cells overexpressing EGFP-LC3 assessed as increase in GFP-tagged LC3-II protein expression at 10 uM incubated for 24 hrs by Western blotting analysis; format: functional, cell-based
[4] = Induction of autophagic flux in human HeLa cells overexpressing EGFP-LC3 assessed as fold increase in GFP-tagged LC3-II protein expression at 1 uM incubated for 24 hrs by Western blotting analysis (reference value: 1); format: functional
[5] = Induction of autophagic flux in human HeLa cells overexpressing EGFP-LC3 assessed as fold increase in GFP-tagged LC3-II protein expression at 3 uM incubated for 24 hrs by Western blotting analysis (reference value: 1); format: functional
HT-1080 [6] = assay: Induction of autophagic flux in human HT-1080 cells assessed as increase in LC3-II protein expression at 10 uM incubated for 24 hrs by Western blotting analysis; format: functional, cell-based
HeLa [7] = assay: Induction of autophagy in human HeLa cells overexpressing EGFP-LC3 assessed as increase in LC3-II puncta formation at 10 uM incubated for 24 hrs in presence of chloroquine by Hoechst staining based immunofluorescence analysis; format: functional, cell-based
HeLa [8] = assay: Induction of autophagy in human HeLa cells overexpressing EGFP-LC3 assessed as increase in LC3-II puncta formation at 10 uM incubated for 24 hrs in presence of rapamycin by Hoechst staining based immunofluorescence analysis; format: functional, cell-based
Lysosomal membrane [9] = assay: Disruption of lysosomal membrane in human HT-1080 cells assessed as downregulation of cathepsin B expression incubated for 24 hrs by Western blotting analysis; format: subcellular
Lysosomal membrane [10] = assay: Induction of lysosomal membrane permeabilization in human HeLa cells assessed as increase fluorescence intensity at 10 uM incubated for 24 hrs in presence of bafilomycin A1 by LysoTracker Red DND-99 dye based confocal laser microscopic analysis; format: subcellular
HT-1080 [11] = assay: Antiproliferative activity against human HT-1080 cells assessed as inhibition of cell growth incubated for 72 hrs by MTT assay; format: functional, cell-based
Lysosomal membrane [12] = assay: Induction of lysosomal membrane permeabilization in human HeLa cells assessed as increase fluorescence intensity at 10 uM incubated for 24 hrs in presence of chloroquine by LysoTracker Red DND-99 dye based confocal laser microscopic analysis; format: subcellular
Lysosomal membrane [13] = assay: Disruption of lysosomal membrane in human HT-1080 cells assessed as downregulation of cathepsin B expression at 20 uM by Western blotting analysis; format: subcellular
Lysosomal membrane [14] = assay: Disruption of lysosomal membrane in human HT-1080 cells assessed as downregulation of cathepsin B expression at 20 uM incubated for 12 hrs by Western blotting analysis; format: subcellular
Lysosomal membrane [15] = assay: Disruption of lysosomal membrane in human HT-1080 cells assessed as downregulation of cathepsin B expression at 5 uM incubated for 12 hrs by Western blotting analysis; format: subcellular

Structure (SMILES)	fold change (FC) [1]	IC50 (HeLa [2]) [µM]	also measured
CCCCCCNC(=O)/C=C1/CN2C3CC(OC(=O)C(C)C)C1C2CN(Cc1ccccc1)C3 (configuration not stated)	3	12.5	
O=C(C[C@H]1CN2C3CC(=O)C1C2CN(Cc1ccccc1)C3)NCc1ccccc1 (some centres not stated)		> 100	Activity (HeLa [3]): inactive
CC(C)CNC(=O)C[C@H]1CN2C3CC(OC(=O)CC(C)C)C1C2CN(Cc1ccccc1)C3 (some centres not stated)	1.7	15.7	
CC(C)C(=O)OC1CC2CN(Cc3ccccc3)CC3C1[C@@H](CC(=O)NCC1CCCCC1)CN23 (some centres not stated)	2.4	15.5	fold change (FC) [4]: 2; fold change (FC) [5]: 2.1
O=C(C[C@H]1CN2C3CC(O)C1C2CN(Cc1ccccc1)C3)NCc1ccccc1 (some centres not stated)		> 100	Activity (HeLa [3]): inactive
CCCCCCNC(=O)/C=C1/CN2C3CNCC2C1C(OC(=O)C(C)C)C3 (configuration not stated)	1.3	> 100	
CC(C)CNC(=O)C[C@H]1CN2C3CC(OC(=O)CC(C)C)C1C2CN(CC(C)C)C3 (some centres not stated)	1.2	> 100	
CC(C)CC(=O)OC1CC2CN(CC(C)C)CC3C1[C@@H](CC(=O)NCc1ccccc1)CN23 (some centres not stated)	2.5	34.2	
CC(C)C(=O)OC1CC2CN(Cc3ccccc3)CC3C1[C@@H](CC(=O)NCc1ccccc1)CN23 (some centres not stated)	1.9	19.3	
CC(=O)OC1CC2CN(Cc3ccccc3)CC3C1[C@@H](CC(=O)NCc1ccccc1)CN23 (some centres not stated)	3.5	78.4	
CCCCCCNC(=O)C[C@H]1CN2C3CC(OC(=O)C(C)C)C1C2CN(Cc1ccccc1)C3 (some centres not stated)	2.4	10.1	Activity (HT-1080 [6]): Active; Activity (HeLa [7]): Not active; Compared To Compound Alone Or Chloroquine Alone Treatment; Mechanism Of Action Similar To Chloroquine; Activity (HeLa [8]): Active; Compared To Compound Alone Or Rapamycin Alone Treatment; fold change (FC) [4]: 1.3; Activity (Lysosomal membrane [9]): Dose-dependent-effect; Activity (Lysosomal membrane [10]): inactive; Activity (HT-1080 [11]): Active; Activity (Lysosomal membrane [12]): Active; Compound Observed To Enlarge Lysosome And Increase Lysosomal Ph Similar To Chloroquine; Activity (Lysosomal membrane [13]): Time-dependent-effect; fold change (FC) [5]: 2.6
CC(C)C(=O)OC1CC2CN(CC3CCCCC3)CC3C1[C@@H](CC(=O)NCC1CCCCC1)CN23 (some centres not stated)	2.9	6	fold change (FC) [4]: 1.4; fold change (FC) [5]: 3.7
CCOC(=O)C[C@H]1CN2C3CNCC2C1C(=O)C3 (some centres not stated)		> 100	Activity (HeLa [3]): inactive
CCCCCCNC(=O)/C=C1/CN2C3CC(OC(=O)C(C)C)C1C2CN(C(=O)OCc1ccccc1)C3 (configuration not stated)	1.3	23.1	
CCCCC(=O)OC1CC2CN(Cc3ccccc3)CC3C1[C@@H](CC(=O)NCc1ccccc1)CN23 (some centres not stated)	5.4	6.7	
CCN(CC)CCCC(C)Nc1ccnc2cc(Cl)ccc12 (configuration not stated) [CHLOROQUINE]	2	43.1	Activity (Lysosomal membrane [14]): Active
O=C(C[C@H]1CN2C3CC(OC(=O)C4CCCCC4)C1C2CN(Cc1ccccc1)C3)NCc1ccccc1 (some centres not stated)	3.7	5.2	

Structure (SMILES)	fold change (FC) [1]	IC50 (HeLa [2]) [µM]	also measured
O=C(C[C@H]1CN2C3CC(OC(=O)Cc4ccccc4)C1C2CN(Cc1ccccc1)C3)NCc1ccccc1 (some centres not stated)	2	14.8	
CC(C)NC(=O)C[C@H]1CN2C3CC(OC(=O)C(C)C)C1C2CN(Cc1ccccc1)C3 (some centres not stated)	1.8	> 100	
CC(C)CNC(=O)C[C@H]1CN2C3CC(OC(=O)Cc4ccccc4)C1C2CN(Cc1ccccc1)C3 (some centres not stated)	1.6	47.9	
CCCCCCCCCCCCCCCC(=O)OC1CC2CN(Cc3ccccc3)CC3C1[C@@H](CC(=O)NCc1ccccc1)CN23 (some centres not stated)	1.1	5.5	
O=C(C[C@H]1CN2C3CC(OC(=O)C4CC4)C1C2CN(Cc1ccccc1)C3)NCc1ccccc1 (some centres not stated)	5.7	18	
CC(C)CN1CC2CC(OC(=O)Cc3ccccc3)C3C(C1)N2C[C@@H]3CC(=O)NCc1ccccc1 (some centres not stated)	1.8	94.2	
CC(C)(C)C(=O)OC1CC2CN(Cc3ccccc3)CC3C1[C@@H](CC(=O)NCc1ccccc1)CN23 (some centres not stated)	3.8	5.6	
CC(C)CNC(=O)C[C@H]1CN2C3CC(OC(=O)Cc4ccccc4)C1C2CN(CC(C)C)C3 (some centres not stated)	1.3	> 100	
CCCCCCNC(=O)/C=C1/CN2C3CC(OC(=O)C(C)C)C1C2CN(C(=O)c1ccccc1)C3 (configuration not stated)	1.3	> 100	
CCCCCCNC(=O)/C=C1/CN2C3CC(OC(=O)C(C)C)C1C2CN(C)C3 (configuration not stated)	2.1	> 100	
O=C(C[C@H]1CN2C3CC(OC(=O)C4CCCCCC4)C1C2CN(Cc1ccccc1)C3)NCc1ccccc1 (some centres not stated)	2.2	5.1	
C#CCCCC(=O)OC1CC2CN(Cc3ccccc3)CC3C1[C@@H](CC(=O)NCc1ccccc1)CN23 (some centres not stated)	4.3	15.7	
CO/C1=C\C(C)=C\[C@@H](C)[C@@H](O)[C@@H](C)C/C(C)=C/C=C/[C@H](OC)[C@@H]([C@@H](C)[C@@H](O)[C@H](C)[C@@]2(O)C[C@@H](O)[C@H](C)[C@@H](C(C)C)O2)OC1=O			Activity (Lysosomal membrane [15]): Active
CNC(=O)C[C@H]1CN2C3CC(OC(=O)C(C)C)C1C2CN(Cc1ccccc1)C3 (some centres not stated)	1.9	> 100	
CC(C)CC(=O)OC1CC2CN(Cc3ccccc3)CC3C1[C@@H](CC(=O)NCc1ccccc1)CN23 (some centres not stated)	3	10	
CCOC(=O)C[C@H]1CN2C3CC(=O)C1C2CN(Cc1ccccc1)C3 (some centres not stated)		> 100	Activity (HeLa [3]): inactive
CC(C)CCC(=O)OC1CC2CN(Cc3ccccc3)CC3C1[C@@H](CC(=O)NCc1ccccc1)CN23 (some centres not stated)	3.7	6.2	
